Measurements as given in patent US6706663B2, “Herbicidal 3-heterocyclic substituted benzisothiazole and benzisoxazole compounds” (Wyeth, priority 2000, dated 2004).

Key:
[1] = test system: CHEAL (Chenopodium album); assay: Preemergence herbicidal evaluation; assay type: in vivo, L.; settings: rated 4-5 weeks after treatment
Summary of the method: (§1)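 Greenhouse preemergence test: freshly planted cups were sprayed once with an aqueous acetone solution of compound. Injury was judged visually on a 0–9 scale relative to a control, four to five weeks later.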

[2] = test system: CASOB (Cassia obtusifolia); assay: Preemergence herbicidal evaluation; assay type: in vivo, L.; settings: rated 4-5 weeks after treatment
Summary of the method: as §1

[3] = test system: AMBEL (Ambrosia artemisifolia); assay: Preemergence herbicidal evaluation; assay type: in vivo, L.; settings: rated 4-5 weeks after treatment
Summary of the method: as §1

[4] = test system: GALAP (Galium aparine); assay: Preemergence herbicidal evaluation; assay type: in vivo; settings: rated 4-5 weeks after treatment
Summary of the method: as §1

[5] = test system: ORYSAT (Rice, Tebonnet); assay: Postemergence herbicidal evaluation; assay type: in vivo, Oryza sativa, (L.) Tebonnet
Summary of the method: (§2)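 Seedlings grown for about two weeks were sprayed postemergence and then kept under standard greenhouse care. Injury was rated visually 4–5 weeks after treatment on a 0–9 scale against untreated controls, and ratings from repeat tests were averaged.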

[6] = test system: ORYSAT (Rice, Tebonnet); assay: Preemergence herbicidal evaluation; assay type: in vivo, Oryza sativa, (L.) Tebonnet; settings: rated 4-5 weeks after treatment
[7] = test system: ZEAMX (Corn, Field); assay: Postemergence herbicidal evaluation; assay type: in vivo, Zea mays, L.
Summary of the method: as §2

[8] = test system: MOOVA (Monochoria vaginalis); assay: Flooded paddy, preemergence weed control; assay type: in vivo, Presl.; settings: rated 3-4 weeks after treatment, 0-9 rating scale
Summary of the method: (§3)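 In this preemergence paddy assay, weed seeds or organs are sown at up to 0.5 cm in silt loam and covered by 1.5–3 cm of water for the full test period. After treatment the pots are kept in a greenhouse, and herbicidal effect is rated 0-9 visually against a control.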

[9] = test system: GLXMAW (Soybean, Williams); assay: Postemergence herbicidal evaluation; assay type: in vivo, Glycine max, (L.) Merr. cv Williams
Summary of the method: as §2

[10] = test system: ECHORC (Echinochloa oryzoides); assay: Flooded paddy, preemergence weed control; assay type: in vivo, Echinochloa oryzoides (Ard.) Fritsch.; settings: rated 3-4 weeks after treatment, 0-9 rating scale
Summary of the method: as §3

[11] = test system: IPOHE (Ipomoea hederacea); assay: Postemergence herbicidal evaluation; assay type: in vivo, (L.) Jacq.
Summary of the method: as §2

[12] = test system: SETVI (Setaria viridis); assay: Postemergence herbicidal evaluation; assay type: in vivo, (L.) Beau
Summary of the method: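 Seedlings about two weeks old were sprayed with compound in 50/50 acetone/water plus 0.5% TWEEN 20, at the equivalent of about 0.0040 to 1.000 kg/ha. Plants were kept in a greenhouse and visually rated 0-9 against a control four to five weeks after treatment. Repeat tests were averaged.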

[13] = test system: CYPSE (Cyperus serotinus); assay: Flooded paddy, preemergence weed control; assay type: in vivo, Rottb.; settings: rated 3-4 weeks after treatment, 0-9 rating scale
Summary of the method: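 Seeds or propagules were planted 0.5 cm deep in silt loam and flooded to 1.5–3 cm. Compounds in 50/50 v/v aqueous/acetone were pipetted into the flood water at about 0.0080 to 0.1250 kg/ha. After 3–4 weeks in the greenhouse, effect was rated visually on a 0–9 scale versus untreated control.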

[14] = test system: ABUTH (Abutilon theophrasti); assay: Preemergence herbicidal evaluation; assay type: in vivo, Medic.; settings: rated 4-5 weeks after treatment
[15] = test system: TRZAWR (Wheat, Winter, cv Riband); assay: Postemergence herbicidal evaluation; assay type: in vivo, Triticum aestivum
Summary of the method: as §2

[16] = test system: ECHCG (Echinochloa crus-galli); assay: Postemergence herbicidal evaluation; assay type: in vivo, (L.) Beau
Summary of the method: as §2

[17] = test system: TRZAWR (Wheat, Winter, cv Riband); assay: Preemergence herbicidal evaluation; assay type: in vivo, Triticum aestivum; settings: rated 4-5 weeks after treatment
Summary of the method: as §1

[18] = test system: SETVI (Setaria viridis); assay: Preemergence herbicidal evaluation; assay type: in vivo, (L.) Beau; settings: rated 4-5 weeks after treatment
Summary of the method: as §1

[19] = test system: ECHCG (Echinochloa crus-galli); assay: Preemergence herbicidal evaluation; assay type: in vivo, (L.) Beau; settings: rated 4-5 weeks after treatment
Summary of the method: as §1

CCOc1cc(OCC)nc(-c2nsc3ccc(-n4c(=O)cc(C(F)(F)F)n(C)c4=O)cc23)n1 [Compound 43, 3-[3-(4,6-diethoxy-2-pyrimidinyl)-1,2-benzisothiazol-5-yl]-1-methyl-6-(trifluoromethyl)uracil]
9.0: Preemergence herbicidal rating CHEAL ([1]; Rate 0.0620 kg/ha) | Preemergence herbicidal rating CHEAL ([1]; Rate 0.1250 kg/ha) | Preemergence herbicidal rating CHEAL ([1]; Rate 0.2500 kg/ha) | herbicidal rating, ECHORC ([10]; rate 0.1250 kg/ha) | Postemergence herbicidal rating, IPOHE ([11]; rate 0.0320 kg/ha) | Postemergence herbicidal rating, IPOHE ([11]; rate 0.0620 kg/ha) | Preemergence herbicidal rating ABUTH ([14]; Rate 0.1250 kg/ha) | Preemergence herbicidal rating ABUTH ([14]; Rate 0.2500 kg/ha) | Preemergence herbicidal rating SETVI ([18]; Rate 0.0620 kg/ha) | Preemergence herbicidal rating SETVI ([18]; Rate 0.1250 kg/ha) | Preemergence herbicidal rating SETVI ([18]; Rate 0.2500 kg/ha)
3.0: Preemergence herbicidal rating ECHCG ([19]; Rate 0.2500 kg/ha)
4.5: Postemergence herbicidal rating, ZEAMX ([7]; rate 0.0320 kg/ha) | Postemergence herbicidal rating, ZEAMX ([7]; rate 0.0620 kg/ha)
3.5: Postemergence herbicidal rating, TRZAWR ([15]; rate 0.0620 kg/ha)
7.0: Preemergence herbicidal rating AMBEL ([3]; Rate 0.2500 kg/ha)
5.0: Preemergence herbicidal rating GALAP ([4]; Rate 0.2500 kg/ha) | herbicidal rating, ECHORC ([10]; rate 0.0320 kg/ha) | Postemergence herbicidal rating, SETVI ([12]; rate 0.0320 kg/ha)
6.0: herbicidal rating, MOOVA ([8]; rate 0.1250 kg/ha) | Postemergence herbicidal rating, GLXMAW ([9]; rate 0.0320 kg/ha) | Postemergence herbicidal rating, GLXMAW ([9]; rate 0.0620 kg/ha)
0.0: Preemergence herbicidal rating CASOB ([2]; Rate 0.0620 kg/ha) | Preemergence herbicidal rating CASOB ([2]; Rate 0.1250 kg/ha) | Preemergence herbicidal rating AMBEL ([3]; Rate 0.0620 kg/ha) | herbicidal rating, CYPSE ([13]; rate 0.0320 kg/ha) | herbicidal rating, CYPSE ([13]; rate 0.1250 kg/ha) | Preemergence herbicidal rating ECHCG ([19]; Rate 0.0620 kg/ha) | Preemergence herbicidal rating ECHCG ([19]; Rate 0.1250 kg/ha)
4.0: Preemergence herbicidal rating GALAP ([4]; Rate 0.1250 kg/ha) | herbicidal rating, MOOVA ([8]; rate 0.0320 kg/ha) | Postemergence herbicidal rating, SETVI ([12]; rate 0.0620 kg/ha) | Preemergence herbicidal rating ABUTH ([14]; Rate 0.0620 kg/ha)
1.0: Preemergence herbicidal rating CASOB ([2]; Rate 0.2500 kg/ha) | Preemergence herbicidal rating AMBEL ([3]; Rate 0.1250 kg/ha) | Preemergence herbicidal rating GALAP ([4]; Rate 0.0620 kg/ha) | Preemergence herbicidal rating ORYSAT ([6]; Rate 0.0620 kg/ha) | Preemergence herbicidal rating TRZAWR ([17]; Rate 0.0620 kg/ha) | Preemergence herbicidal rating TRZAWR ([17]; Rate 0.1250 kg/ha)
2.0: Postemergence herbicidal rating, ORYSAT ([5]; rate 0.0320 kg/ha) | Postemergence herbicidal rating, ORYSAT ([5]; rate 0.0620 kg/ha) | Preemergence herbicidal rating ORYSAT ([6]; Rate 0.1250 kg/ha) | Preemergence herbicidal rating ORYSAT ([6]; Rate 0.2500 kg/ha) | Postemergence herbicidal rating, ECHCG ([16]; rate 0.0320 kg/ha) | Postemergence herbicidal rating, ECHCG ([16]; rate 0.0620 kg/ha) | Preemergence herbicidal rating TRZAWR ([17]; Rate 0.2500 kg/ha)
2.5: Postemergence herbicidal rating, TRZAWR ([15]; rate 0.0320 kg/ha)

Cc1cccnc1-c1nsc2cc(F)c(-n3c(=O)cc(C(F)(F)F)n(C)c3=O)cc12 [Compound 44, 3-[6-fluoro-3-(3-methyl-2-pyridyl)-1,2-benzisothiazol-5-yl]-1-methyl-6-(trifluoromethyl)uracil]
2.0: Postemergence herbicidal rating, ORYSAT ([5]; rate 0.0320 kg/ha)
8.0: Preemergence herbicidal rating AMBEL ([3]; Rate 0.0620 kg/ha) | Preemergence herbicidal rating ORYSAT ([6]; Rate 0.1250 kg/ha) | Preemergence herbicidal rating ORYSAT ([6]; Rate 0.2500 kg/ha)
9.0: Preemergence herbicidal rating CHEAL ([1]; Rate 0.0620 kg/ha) | Preemergence herbicidal rating CHEAL ([1]; Rate 0.1250 kg/ha) | Preemergence herbicidal rating CHEAL ([1]; Rate 0.2500 kg/ha) | Preemergence herbicidal rating CASOB ([2]; Rate 0.2500 kg/ha) | Preemergence herbicidal rating AMBEL ([3]; Rate 0.1250 kg/ha) | Preemergence herbicidal rating AMBEL ([3]; Rate 0.2500 kg/ha) | Preemergence herbicidal rating GALAP ([4]; Rate 0.1250 kg/ha) | Preemergence herbicidal rating GALAP ([4]; Rate 0.2500 kg/ha) | herbicidal rating, MOOVA ([8]; rate 0.1250 kg/ha) | herbicidal rating, ECHORC ([10]; rate 0.1250 kg/ha) | Postemergence herbicidal rating, IPOHE ([11]; rate 0.0320 kg/ha) | Postemergence herbicidal rating, IPOHE ([11]; rate 0.0620 kg/ha) | Postemergence herbicidal rating, SETVI ([12]; rate 0.0320 kg/ha) | Postemergence herbicidal rating, SETVI ([12]; rate 0.0620 kg/ha) | herbicidal rating, CYPSE ([13]; rate 0.0320 kg/ha) | herbicidal rating, CYPSE ([13]; rate 0.1250 kg/ha) | Preemergence herbicidal rating ABUTH ([14]; Rate 0.0620 kg/ha) | Preemergence herbicidal rating ABUTH ([14]; Rate 0.1250 kg/ha) | Preemergence herbicidal rating ABUTH ([14]; Rate 0.2500 kg/ha) | Preemergence herbicidal rating TRZAWR ([17]; Rate 0.2500 kg/ha) | Preemergence herbicidal rating SETVI ([18]; Rate 0.0620 kg/ha) | Preemergence herbicidal rating SETVI ([18]; Rate 0.1250 kg/ha) | Preemergence herbicidal rating SETVI ([18]; Rate 0.2500 kg/ha) | Preemergence herbicidal rating ECHCG ([19]; Rate 0.0620 kg/ha) | Preemergence herbicidal rating ECHCG ([19]; Rate 0.1250 kg/ha) | Preemergence herbicidal rating ECHCG ([19]; Rate 0.2500 kg/ha)
0.0: Preemergence herbicidal rating GALAP ([4]; Rate 0.0620 kg/ha) | herbicidal rating, MOOVA ([8]; rate 0.0080 kg/ha) | herbicidal rating, CYPSE ([13]; rate 0.0080 kg/ha)
6.0: Preemergence herbicidal rating TRZAWR ([17]; Rate 0.0620 kg/ha)
1.0: Preemergence herbicidal rating CASOB ([2]; Rate 0.0620 kg/ha) | Postemergence herbicidal rating, ECHCG ([16]; rate 0.0320 kg/ha)
3.5: Postemergence herbicidal rating, ORYSAT ([5]; rate 0.0620 kg/ha)
7.0: Preemergence herbicidal rating TRZAWR ([17]; Rate 0.1250 kg/ha)
8.5: herbicidal rating, MOOVA ([8]; rate 0.0320 kg/ha) | Postemergence herbicidal rating, GLXMAW ([9]; rate 0.0320 kg/ha) | Postemergence herbicidal rating, GLXMAW ([9]; rate 0.0620 kg/ha) | herbicidal rating, ECHORC ([10]; rate 0.0320 kg/ha)
3.0: herbicidal rating, ECHORC ([10]; rate 0.0080 kg/ha) | Postemergence herbicidal rating, ECHCG ([16]; rate 0.0620 kg/ha)
6.5: Preemergence herbicidal rating ORYSAT ([6]; Rate 0.0620 kg/ha)
5.0: Postemergence herbicidal rating, ZEAMX ([7]; rate 0.0320 kg/ha) | Postemergence herbicidal rating, TRZAWR ([15]; rate 0.0620 kg/ha)
5.5: Preemergence herbicidal rating CASOB ([2]; Rate 0.1250 kg/ha) | Postemergence herbicidal rating, ZEAMX ([7]; rate 0.0620 kg/ha)
4.0: Postemergence herbicidal rating, TRZAWR ([15]; rate 0.0320 kg/ha)
